# Read-outs that look alike come from different tables or passages of the source.
# Experiments:
# [1] = system: human lung (A549) cancer cell line; assay: Cell viability, crystal violet dye binding assay, A549; type: cell-based
# [2] = system: A549 cells; assay: ROS production, DCFDA dye; type: cell-based, human; settings: 30 min
# [3] = system: A549 cells; assay: Mitochondrial membrane potential; type: cell-based, human; settings: rhodamine-123
# [4] = Homo sapiens, A549, 48 h, read-out: CC50 (cytotoxic concentration), A549, A549, 48 h exposure, crystal violet, mean ± SD
# [5] = read-out: CC50 (cytotoxic concentration), A549, A549, 48 h exposure, crystal violet, mean ± SD
smiles,measurement,setting,value
"CC(=O)Oc1ccc(-c2cc3ccc(OC(C)=O)c(OC(C)=O)c3oc2=O)cc1 [Compound 6, 8-(acetyloxy)-3-[4-(acetyloxy)phenyl]-2-oxo-2H-chromen-7-yl acetate]",CC50,[1]; [4],75.2 µM
same,CC50,[1]; [5],75.9 ± 0.65 µM
"CC(=O)Oc1ccc2cc(-c3ccc(S(C)(=O)=O)cc3)c(=O)oc2c1OC(C)=O [Compound 7, 8-(acetyloxy)-3-(4-methanesulfonylphenyl)-2-oxo-2H-chromen-7-yl acetate]","fold decrease in potency compared to docetaxel (CC50, A549)","[1]; A549, 48 h, 7 vs docetaxel",2.5 fold
same,CC50,[1]; [5],24.2 ± 0.7 µM
same,ROS fluorescence intensity in comparison to untreated control (100%),"[2]; A549, 10 μM",107.1%
same,ROS fluorescence intensity in comparison to untreated control (100%),"[2]; A549, 25 μM",129.0%
same,ROS fluorescence intensity in comparison to untreated control (100%),"[2]; A549, 50 μM",136.6%
same,ROS fluorescence intensity in comparison to untreated control (100%),"[2]; A549, 75 μM",146.0%
same,ROS fluorescence intensity in comparison to untreated control (100%),"[2]; A549, 100 μM",231.2%
same,MMP fluorescence intensity in comparison to untreated control (100%),"[3]; A549, 10 μM",96.4%
same,MMP fluorescence intensity in comparison to untreated control (100%),"[3]; A549, 25 μM",94.8%
same,MMP fluorescence intensity in comparison to untreated control (100%),"[3]; A549, 50 μM",93.4%
same,MMP fluorescence intensity in comparison to untreated control (100%),"[3]; A549, 75 μM",92.9%
same,MMP fluorescence intensity in comparison to untreated control (100%),"[3]; A549, 100 μM",81.7%
"CS(=O)(=O)c1ccc(-c2cc3ccccc3oc2=O)cc1 [Compound 9, 3-(4-methanesulfonylphenyl)-2H-chromen-2-one]",CC50,[1]; [4],> 100 µM
"CC(=O)Oc1ccc(-c2c(C)c3ccccc3oc2=O)cc1 [Compound 10, 4-(4-methyl-2-oxo-2H-chromen-3-yl)phenyl acetate]",CC50,[1]; [4],> 100 µM
"Cc1c(-c2ccc(S(C)(=O)=O)cc2)c(=O)oc2ccccc12 [Compound 11, 3-(4-methanesulfonylphenyl)-4-methyl-2H-chromen-2-one]",CC50,[1]; [4],> 100 µM
"CC(=O)O[C@@]12CO[C@@H]1C[C@H](O)[C@@]1(C)C(=O)[C@H](O)C3=C(C)[C@@H](OC(=O)[C@H](O)[C@@H](NC(=O)OC(C)(C)C)c4ccccc4)C[C@@](O)([C@@H](OC(=O)c4ccccc4)[C@H]21)C3(C)C [Docetaxel, reference compound]",CC50,[1]; [4],9.47 µM
same,CC50,[1]; [5],9.4 ± 0.07 µM
